These results are taken from patent publication US20110105523A1, “BIFEPRUNOX DERIVATIVES” (priority 2008, published 2011).

Test [1] concerns the target T1, human dopamine D2L receptor (Homo sapiens, UniProt P14416).
T1 construct: host or cells: CHO-K1
The experiment in a line: Receptor binding, displacement of [3H]-spiperone on CHO cell membranes. The conditions noted are these: [3H]-spiperone displacement, recombinant human D2L in CHO membranes; s.e.m. in brackets; read-out: pKi value mean ± s.e.m. (converted). The procedure:
The potency of 3′-hydroxy-bifeprunox, 4′-hydroxy-bifeprunox, 3′-sulfate-bifeprunox, 4′-sulfate-bifeprunox and, for comparison, bifeprunox as a ligand on the human dopamine D2L receptor was investigated using a receptor binding assay and determination of functional activity was investigated using a cAMP assay. All compounds were dissolved in DMSO.
The binding of the compounds of the invention to the human D2L receptor was performed using displacement of radioactive-labeled [^3H]-spiperone binding on membranes prepared from Chinese hamster ovary (CHO) cells expressing the recombinant human D2L receptor.
Human dopamine D2L receptors were cloned in CHO-K1 cells and obtained from Dr. D. Grandy, Vollum Institute, Portland, Oreg., USA.
The binding assay has been carried out using [^3H]-spiperone as ligand (see Eur. J. Pharmacol. 46:377-381, 1977). The labeled compound was incubated with or without the test compound, with a preparation from cloned CHO cells carrying the human dopamine D2L receptor. Separation of bound and free ligand was performed by filtration over glassfiber-filters. After two washings, the bound-fraction remained on the filter. Radioactivity trapped on the filter was measured by scintillation counting. Results are expressed as pKi (negative logarithm of the inhibition constant Ki which is calculated form the IC50).
A general note: In a radioligand displacement assay an active substance lowers the binding of a labelled ligand.

Test [2] deals with T1, human dopamine D2L receptor. The experiment in a line: Adenylate cyclase activity (cAMP assay), inhibition of forskolin-stimulated cAMP accumulation in CHO cells. Type of test: cell-based. The conditions noted are these: for Conversion of cAMP, % of control (mean (±s.e.m.)): control = forskolin-stimulated cAMP accumulation; for EC50: inhibition of forskolin-induced cAMP accumulation, D2L agonism, read-out: pEC50 mean (±s.e.m.) (converted). How it is done: All compounds were dissolved in DMSO.
For incubation with test compounds (concentrations 10^−6-10^−10M), confluent cultures grown in 24 wells plates were used. Each condition or substance was routinely tested in quadruplicate. Cells were loaded with 1 μCi [^3H]-adenine in 0.5 ml medium/well. After 2 hours, cultures were washed with 0.5 ml PBS containing […] IBMX and forskolin with or without test compound. After aspiration the reaction was stopped with 1 ml trichloroacetic acid 5% (w/v). […] The extract was passed over Dowex (50W-4 200-400 mesh) and aluminiumoxide columns, eluted with water and 0.1M imidazole (pH=7.5). Eluates were mixed with 7 ml of Insta-gel and radioactivity was counted with a scintillation counter. The conversion of the cAMP fraction as compared to combined radioactivity in both cAMP and ATP fractions, and basal activity was subtracted to correct for spontaneous activity.
Dopamine D2L: reference compound: quinpirole; incubation time: 20 min.
Subsequently, the mean of four observations was taken as an estimate for drug-induced, receptor-mediated effects at specified messenger accumulation, expressed as percentage of control values (forskolin-stimulated cAMP accumulation).
By using the non-linear curve-fitting program XL-FIT mean values were plotted against drug concentration (in molar) and sigmoid curve (four parameter logistic curve) was constructed. The maximal forskolin-induced stimulated conversion was taken as maximum value and the maximal inhibition as minimum and these values were fixed during the fitting process.
A general note: Changes in cAMP serve as a functional read-out for many G protein-coupled receptors.

T1 sequence (P14416 whole entry): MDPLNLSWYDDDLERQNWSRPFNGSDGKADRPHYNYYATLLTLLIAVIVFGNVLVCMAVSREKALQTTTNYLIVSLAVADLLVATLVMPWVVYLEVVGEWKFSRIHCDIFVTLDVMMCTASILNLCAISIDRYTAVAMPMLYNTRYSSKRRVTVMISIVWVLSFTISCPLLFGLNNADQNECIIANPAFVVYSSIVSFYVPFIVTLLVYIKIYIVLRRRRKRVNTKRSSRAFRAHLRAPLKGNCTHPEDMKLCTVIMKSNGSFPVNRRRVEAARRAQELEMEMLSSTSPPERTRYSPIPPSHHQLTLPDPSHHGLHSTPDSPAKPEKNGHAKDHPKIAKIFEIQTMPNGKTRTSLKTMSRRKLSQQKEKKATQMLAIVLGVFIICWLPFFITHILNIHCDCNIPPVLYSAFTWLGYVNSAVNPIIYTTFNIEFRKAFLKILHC

As for `O=c1[nH]c2cccc(N3CCN(Cc4cccc(-c5ccc(O)cc5)c4)CC3)c2o1` [4′-OH, 7-[4-(4′-hydroxy[1,1′-biphenyl]-3-ylmethyl)-1-piperazinyl]-2(3H)-benzoxazolone], in test [1], the Ki is 12.6 nM. For the same molecule, in test [2], the “PS: mean % stimulation (agonism) at 1 μM” value is 55%. Besides, the “Conversion of cAMP, % of control (mean (±s.e.m.))” value (from here on “Conversion of cAMP, % of control”) in test [2] (10^−6M test compound) was 45 (4) % of control; in test [2] (10^−7M test compound), 50 (2) % of control; in test [2] (10^−8M test compound) it was 58 (4) % of control; in test [2] (10^−9M test compound), 59 (3) % of control; in test [2] (10^−10M test compound) it was 90 (9) % of control. In test [2], the EC50 is 0.2 nM.
Regarding `O=c1[nH]c2cccc(N3CCN(Cc4cccc(-c5cccc(OS(=O)(=O)O)c5)c4)CC3)c2o1` [3′-sulfate, 7-[4-(3′-sulfooxy[1,1′-biphenyl]-3-ylmethyl)-1-piperazinyl]-2(3H)-benzoxazolone], in test [1], the Ki is 12.6 nM. Moreover, the “PS: mean % stimulation (agonism) at 1 μM” value in test [2] was 51%. In addition, the “Conversion of cAMP, % of control” value in test [2] (10^−6M test compound) is reported as 49 (6) % of control; in test [2] (10^−7M test compound) it was 66 (12) % of control; in test [2] (10^−8M test compound), 79 (6) % of control; in test [2] (10^−9M test compound) it was 93 (9) % of control; in test [2] (10^−10M test compound), 94 (5) % of control. Further, the EC50 in test [2] was 12.6 nM.
Take `O=c1[nH]c2cccc(N3CCN(Cc4cccc(-c5ccc(OS(=O)(=O)O)cc5)c4)CC3)c2o1` [4′-sulfate, 7-[4-(4′-sulfooxy[1,1′-biphenyl]-3-ylmethyl)-1-piperazinyl]-2(3H)-benzoxazolone]: the Ki in test [1] was 6.31 nM. Besides, in test [2], the “PS: mean % stimulation (agonism) at 1 μM” value came to 49%. For the same molecule, the “Conversion of cAMP, % of control” value in test [2] (10^−6M test compound) was 51 (16) % of control; in test [2] (10^−7M test compound), 63 (14) % of control; in test [2] (10^−8M test compound), 65 (13) % of control; in test [2] (10^−9M test compound), 72 (13) % of control; in test [2] (10^−10M test compound) it was 85 (9) % of control. The EC50 in test [2] was 0.631 nM.
As for `O=c1[nH]c2cccc(N3CCN(Cc4cccc(-c5cccc(O)c5)c4)CC3)c2o1` [3′-OH, 7-[4-(3′-hydroxy[1,1′-biphenyl]-3-ylmethyl)-1-piperazinyl]-2(3H)-benzoxazolone], in test [1], the Ki was 12.6 nM. In addition, in test [2], the “PS: mean % stimulation (agonism) at 1 μM” value came to 49%. In addition, the “Conversion of cAMP, % of control” value is recorded as 51 (10) % of control in test [2] (10^−6M test compound); 56 (8) % of control in test [2] (10^−7M test compound); 63 (7) % of control in test [2] (10^−8M test compound); 70 (6) % of control in test [2] (10^−9M test compound); 84 (4) % of control in test [2] (10^−10M test compound). In addition, the EC50 in test [2] is 0.794 nM.
Consider `O=c1[nH]c2cccc(N3CCN(Cc4cccc(-c5ccccc5)c4)CC3)c2o1` [Bifeprunox, 7-[4-([1,1′-biphenyl]-3-ylmethyl1)-1-piperazinyl]-2(3H)-benzoxazolone monomethanesulphonate], for which the Ki in test [1] was 39.8 nM. Besides, in test [2], the “PS: mean % stimulation (agonism) at 1 μM” value was 31%. Also, the “Conversion of cAMP, % of control” value was 69 (10) % of control in test [2] (10^−6M test compound); 69 (11) % of control in test [2] (10^−7M test compound); 84 (12) % of control in test [2] (10^−8M test compound); 94 (13) % of control in test [2] (10^−9M test compound); 95 (15) % of control in test [2] (10^−10M test compound). In addition, the EC50 in test [2] was 6.31 nM.
